# Assay results reported in PMC12471852, “Design and Synthesis of Marine-Inspired Itampolin A Derivatives to Overcome Chemoresistance in NSCLC via Cholesterol Homeostasis Modulation” (Marine Drugs, 2025).
# Where “and” joins values, the source holds several entries; their conditions need not be identical. Equal values may be shown once. Entries after “also recorded” stand apart in the source; their conditions may differ.
# Columns and labels:
# [1] = system: PC9 cells; experiment: MTT anti-proliferation assay, PC9 cells; type: cell-based, human; details: for MTT, PC9, value relative to control (=100), single replicate: 24 h
# Method: To evaluate the tumor-selective activity of compounds 4l and 4m, dose–response studies were performed on wild-type PC9 and gefitinib-resistant PC9/GR cell lines. […] Subtoxic concentrations of 25, 50, and 75 μM were employed to ensure specificity for drug-resistant phenotypes while preserving normal cell viability. […] To assess long-term proliferative potential, clonogenic survival assays were performed. Cells pretreated with 4l (24 h) were trypsinized to generate single-cell suspensions, plated at 300 cells/well, and cultured for 14 days. […] Cell migration ability was evaluated by the scratch healing assay. […] To evaluate the pro-apoptotic efficacy of 4l, we employed a dual-staining approach using Annexin V-FITC and propidium iodide (PI) for quadrant-specific quantification of programmed cell death. Annexin V binds externalized phosphatidylserine (PS), a hallmark of early apoptosis, while PI permeabilization discriminates late-stage apoptotic or necrotic cells.
# (§1) The human normal lung epithelial cell line BEAS-2B, non-small cell lung carcinoma (NSCLC) cell line PC9, and gefitinib-resistant PC9/GR cell line were purchased from Procell Life Science & Technology Co., Ltd. (Wuhan, China). All cell lines were maintained in RPMI-1640 medium (BI, Beit Haemek, Mateh Asher, Israel) supplemented with 10% fetal bovine serum (FBS, Gibco, Thermo Fisher Scientific, Waltham, MA, USA) and 1% penicillin–streptomycin–amphotericin B sterile solution (Solarbio, Beijing, China). Cells were cultured at 37 °C in a humidified incubator with 5% CO2. For subculturing, cells were harvested using trypsin-EDTA solution upon reaching 70–80% confluence and resuspended at appropriate densities for subsequent experiments.
# (§2) MTT: Cells (5 × 10^4/mL) were treated with 4l (25–100 μM, 24–48 h), incubated with MTT (10 μL/well, 4–6 h), and dissolved in DMSO. Absorbance (490 nm) was measured to assess viability.
# [2] = system: PC9/GR cells; experiment: Scratch (wound) healing assay; type: cell-based, human; details: for relative wound healing area: vehicle control 44.08%
# Method: PC9/GR cells were grown to 90% confluence. A uniform wound was created in the monolayer using a sterile 200 µL pipette tip. The initial wound area was imaged immediately (0 h) using phase-contrast microscopy. After 24 h of incubation in complete medium, the wound area was re-imaged. The relative wound closure rate was calculated from the change in wound area using ImageJ software (version 1.53).
# [3] = system: BEAS-2B cells; experiment: MTT cytotoxicity assay, normal bronchial epithelial BEAS-2B cells; type: cell-based, human
# Method: The cytotoxicity of compound 4l on normal human bronchial epithelial cells (BEAS-2B) was also evaluated using the MTT assay. Cells treated with 0.1% DMSO served as the vehicle control.
# as §1, §2
# [4] = system: TM7SF2; experiment: Western blot / immunofluorescence of TM7SF2 protein in PC9/GR cells; type: cell-based, human; details: 4l-treated vs untreated PC9/GR, immunoblotting
# Description: (§3) By comparing PC9/GR treated with the small molecule compound 4l against untreated PC9/GR controls, we identified significant differentially expressed genes (DEGs). […] The results of the GO enrichment analysis further emphasized the significant impact of the small molecule compound 4l on steroid biosynthesis and metabolism in lung cancer cells, with the top five pathways being steroid biosynthesis, steroid metabolism, the metabolism of hydroxylated compounds, steroid biosynthesis, and cholesterol biosynthesis (Figure 4C). […] TM7SF2 has been identified as a critical regulator of cholesterol biosynthesis and steroid metabolism in lung cancer cells, a finding central to overcoming chemoresistance in NSCLC [28]. Thus, we selected TM7SF2 as the target gene for further experiments and investigated the protein expression of TM7SF2 in 4l-treated PC9/GR cells using immunoblotting.
# Western blot: Proteins extracted with RIPA buffer were quantified (BCA), separated by SDS-PAGE, transferred to PVDF membranes, and probed with antibodies. Signals were detected by ECL.
# [5] = system: TM7SF2; experiment: Transcriptome sequencing, differentially expressed genes; type: cell-based, human; details: 4l-treated vs untreated PC9/GR
# Description: as §3
# [6] = system: C/EBPβ binding to the TM7SF2 promoter region; experiment: ChIP-qPCR of C/EBPβ binding to the TM7SF2 promoter; type: cell-based, human; details: Anti-C/EBPβ group of PC9/GR cells treated with 4l
# Description: We obtained the gene promoter sequence of TM7SF2 from the NCBI database and utilized online databases JASPAR, UCSC, and hTFtarget to predict potential transcription factors for TM7SF2 (Table S2). […] Some studies indicate that p38 can induce C/EBPβ expression through the activation of p38 MAPK, JNK, or ERK in different experimental environments. We conducted Western blot experiments to detect changes in C/EBPβ expression and p38 protein activation and used ChIP and qPCR to determine whether C/EBPβ can target the TM7SF2 promoter region. […] Furthermore, the strength of this direct binding may be related to intracellular cholesterol levels.
# ChIP: 4l treated cells were crosslinked (1% formaldehyde, 20 min), lysed, and sonicated. Chromatin was immunoprecipitated with target antibodies, washed, and eluted. DNA was purified for qPCR.
# qPCR: SYBR Green-based reactions (20 μL) included primers (0.4 μM each) and template DNA.
# [7] = Body weight / toxicity monitoring in tumor-bearing nude mice; type: in vivo, BALB/c nude mice
# Description: For many years, the technique of implanting human tumor cell lines into nude mice models has been widely used to predict the anti-cancer effects of targeted anti-cancer drugs. In the nude mouse tumor implantation experiment, we continuously monitored the changes in the mouse body weight after administration. […] At the end of the experiment, after euthanizing the nude mice using the spinal dislocation method, we isolated the tumor tissues, weighed them, and conducted statistical analysis.
# BALB/c nude mice (n = 12) were subcutaneously injected with PC9/GR cells (1 × 10^7 cells/mouse). When tumors reached 50 mm^3, mice received daily 4l or vehicle (3 weeks). Tumor volume (0.52 × length × width^2) and weight were recorded post-euthanasia.
# [8] = fourth column = 75 μM by match with b18
# [9] = second column = 25 μM by match with b18
# [10] = third column = 50 μM by match with b18
smiles,measurement,setting,value
"O=C(NCCc1cc(Br)c(O)c(Br)c1)Nc1ccc(F)cc1 [4l, 1-(3,5-dibromo-4-hydroxyphenethyl)-3-(4-fluorophenyl)urea]","MTT, PC9, value relative to control (=100), single replicate",[1]; 25 (μM),96.45 and 96.61 and 99.63 and 98.61
same,"MTT, PC9, value relative to control (=100), single replicate",[1]; 50 (μM),81.78 and 87.43 and 80.72 and 89.73
same,"MTT, PC9, value relative to control (=100), single replicate",[1]; 75 (μM),88.89 and 73.34 and 79.63 and 70.04
same,"MTT, PC9, value relative to control (=100), single replicate",[1]; 100 (μM),57.64 and 69.62 and 60.69 and 61.33
same,IC50,"[1]; Homo sapiens, PC-9, wild-type PC9, MTT, 24-hour treatment, 0–100 μM, read-out: IC50, growth inhibition",136 µM
same,relative wound healing area,[2]; 25 μM,25.32%
same,relative wound healing area,[2]; 50 μM,27.45%
same,relative wound healing area,[2]; 75 μM,15.45%
same,"relative wound healing area, mean of replicates",[2]; [8],15.4595
same,"relative wound healing area, single replicate",[2]; [8],9.798 and 22.5542 and 10.9511 and 18.5341
same,"relative wound healing area, mean of replicates",[2]; [9],25.3251
same,"relative wound healing area, single replicate",[2]; [9],23.8842 and 10.9955 and 36.4639 and 29.9568
same,"relative wound healing area, mean of replicates",[2]; [10],27.4562
same,"relative wound healing area, single replicate",[2]; [10],33.9434 and 27.2189 and 28.6416 and 20.021
same,"MTT, normal cells, value relative to control (=100), single replicate","[3]; 25 (μM), 24 h",88.6 and 95.3 and 97.6 and 88.2
same,"MTT, normal cells, value relative to control (=100), single replicate","[3]; 25 (μM), 48 h",90.6 and 83.5 and 89.7 and 76.4
same,anti-proliferative effect on BEAS-2B cells,"[3]; 25 to 100 μM, 24 h",no significant anti-proliferative effects
same,"MTT, normal cells, value relative to control (=100), single replicate","[3]; 50 (μM), 24 h",80.6 and 83.5 and 79.7 and 76.4
same,"MTT, normal cells, value relative to control (=100), single replicate","[3]; 50 (μM), 48 h",79.8 and 82.9 and 80.5 and 70.5
same,"MTT, normal cells, value relative to control (=100), single replicate","[3]; 75 (μM), 24 h",79.4 and 80.4 and 76.3 and 78.9
same,"MTT, normal cells, value relative to control (=100), single replicate","[3]; 75 (μM), 48 h",75.2 and 77.7 and 73.1 and 76.4
same,"MTT, normal cells, value relative to control (=100), single replicate","[3]; 100 (μM), 24 h",80.2 and 71.5 and 74.6 and 73.5
same,"MTT, normal cells, value relative to control (=100), single replicate","[3]; 100 (μM), 48 h",77.3 and 80.6 and 71 and 69.3
same,cytotoxicity in normal lung cells,[3]; doses ≤ 100 μM,negligible cytotoxicity; also recorded: minimal cytotoxicity
same,cellular proliferation efficiency of BEAS-2B cells,"[3]; prolonged treatment, 48 h",remained comparable to untreated controls
same,TM7SF2 protein expression level,[4],significantly reduced
same,TM7SF2 gene expression (differentially expressed genes),[5],significantly downregulated
same,C/EBPβ binding to TM7SF2 promoter (specific amplification bands),[6],did not show specific amplification bands
same,mouse body weight after administration,"[7]; 200 mg/kg, 21 days",no significant decrease or fluctuation
same,toxicity to nude mice / systemic toxicity,[7]; dosage used in the xenograft experiment,did not have significant toxicity; also recorded: without eliciting systemic toxicity; also recorded: without inducing systemic toxicity
